The values that follow come from patent publication US11339151B2, “Aliphatic acid amide derivative” (Sumitomo Dainippon Pharma Co., Ltd., priority 2019, dated 2022).

The target in series [1] is T1, human 5-HT7 receptor (Homo sapiens (Human), UniProt P34969). The experiment in a line: Test 2: antagonist activity for human 5-HT7 receptor (aequorin luminescence, CHO-K1 cells). It counts as cell-based. The following applies: Gα16. The essentials:
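Antagonism was measured by aequorin luminescence in CHO-K1 cells transiently expressing the receptor together with Gα16. Compounds in DMSO were added after the cells rested 2 h at room temperature. The 10 μmol/L endogenous-ligand response defined 100% for calculating inhibitory activity.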

Series [2] in a line: Test 3-1: metabolic stability test in human hepatic microsome. The series is classed as in vitro ADME. The following applies: microsome 0.1 mg/mL, test compound 0.1 μmol/L, 37° C., 30 minutes. Summed up: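 Test compound at 0.1 μmol/L incubated 30 min at 37° C with human liver microsomes 0.1 mg/mL and NADPH 3.2 mmol/L in 25 mmol/L phosphate buffer, pH 7.4. Residual compound measured by LC-MS; stability (mL/min/mg protein) = −LN(residual ratio)/30/0.1.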

Series [3] deals with hERG channel (Homo sapiens (Human), UniProt Q12809). The experiment in a line: Test 5: inhibitory activity for hERG channel (whole cell patch clamp, hERG-CHO cells). The series is classed as cell-based. The following applies: for IC50: hERG-CHO cells, auto patch clamp; for hERG inhibitory IC50 (nmol/L)/5-HT2A Ki (nmol/L) / hERG inhibitory IC50 (nmol/L)/5-HT7 Ki (nmol/L): ratio. Summed up: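 Automated whole-cell patch clamp on CHO cells stably expressing hERG (IKr), pulses every 15 s. Each compound applied at 4 incremental concentrations. Value based on mean peak tail current from the last 3 stimulations at each concentration.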
Chain of hERG channel (Q12809 whole entry): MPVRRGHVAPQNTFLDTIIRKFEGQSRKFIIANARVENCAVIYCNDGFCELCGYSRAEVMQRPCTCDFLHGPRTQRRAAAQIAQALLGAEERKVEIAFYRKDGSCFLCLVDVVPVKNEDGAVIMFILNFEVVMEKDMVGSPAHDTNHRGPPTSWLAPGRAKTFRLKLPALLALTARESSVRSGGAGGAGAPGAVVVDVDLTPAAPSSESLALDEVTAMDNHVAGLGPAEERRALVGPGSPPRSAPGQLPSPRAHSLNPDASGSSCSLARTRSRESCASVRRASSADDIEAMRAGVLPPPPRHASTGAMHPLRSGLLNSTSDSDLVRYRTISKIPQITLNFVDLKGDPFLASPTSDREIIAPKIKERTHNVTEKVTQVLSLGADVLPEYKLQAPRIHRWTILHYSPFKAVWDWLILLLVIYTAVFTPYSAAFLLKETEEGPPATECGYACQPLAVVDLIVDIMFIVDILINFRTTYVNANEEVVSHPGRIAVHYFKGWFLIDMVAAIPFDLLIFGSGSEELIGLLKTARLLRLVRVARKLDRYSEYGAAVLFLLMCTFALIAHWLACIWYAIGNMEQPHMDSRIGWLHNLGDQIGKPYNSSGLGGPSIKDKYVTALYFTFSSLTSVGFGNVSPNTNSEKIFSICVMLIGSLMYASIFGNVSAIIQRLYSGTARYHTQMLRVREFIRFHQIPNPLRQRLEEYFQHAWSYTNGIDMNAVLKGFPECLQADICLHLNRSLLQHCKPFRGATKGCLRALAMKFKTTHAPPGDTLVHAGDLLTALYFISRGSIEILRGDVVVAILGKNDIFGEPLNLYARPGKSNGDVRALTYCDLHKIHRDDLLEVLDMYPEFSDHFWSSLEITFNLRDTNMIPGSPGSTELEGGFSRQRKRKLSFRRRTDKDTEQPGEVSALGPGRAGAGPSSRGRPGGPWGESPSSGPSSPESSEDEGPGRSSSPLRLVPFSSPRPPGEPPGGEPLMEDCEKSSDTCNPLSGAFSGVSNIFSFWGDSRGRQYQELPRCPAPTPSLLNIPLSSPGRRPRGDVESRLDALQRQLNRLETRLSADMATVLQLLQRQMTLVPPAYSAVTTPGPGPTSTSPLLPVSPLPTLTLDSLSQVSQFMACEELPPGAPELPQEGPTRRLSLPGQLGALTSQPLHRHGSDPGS

The nature of series [4]: Test 10: hepatotoxic risk, dansyl glutathione (dGSH) trapping assay. The series is classed as in vitro ADME. The following applies: human hepatic microsome, 37° C., 60 minutes; N.D. means below detection limit. Here is the method: Test 10: Evaluation of Hepatotoxic Risk (Dansyl Glutathione (dGSH) Trapping Assay)
The present compound was metabolized in hepatic microsome, and from the resulted metabolite, reactive metabolite which reacts with dancyl glutathione (dGSH) was detected and quantified as the following method. Measurement was carried out with a screening robot (Tecan) for metabolic reaction, and with a fluorescence detection UPLC system (Waters) for metabolite-dGSH binding concentration.
The present compound was dissolved in DMSO to prepare 10 mmol/L test compound solution. 7.6 mL of potassium phosphate buffer (500 mmol/L, pH 7.4), 1.9 mL of human hepatic microsome (Xenotech, 20 mg protein/mL), and 1.27 mL of pure water were mixed to prepare a microsome solution. To 3.78 mL of the microsome solution was added 0.67 mL of pure water to prepare a microsome (dGSH(−)) solution. To 6.48 mL of the microsome solution was added 1.14 mL of the dGSH solution (20 mmol/L) to prepare a microsome (dGSH(+)) solution. […] 33 mg of tris(2-carboxyethyl)phosphine (TECP) was dissolved in 115 mL of methanol to prepare a reaction stop solution.
12 μL of the test compound solution was mixed with 388 μL of pure water, and the mixture was dispensed in 50 μL each into 6 wells of a 96-well plate. […] To the “reaction group” and “unreacted group” was added the microsome (dGSH(+)) solution, and to the “dGSH-free group” was added the microsome (dGSH(−)) solution in 50 μL each. To the “reaction group” and “dGSH-free group” was added to the cofactor solution, and to the “unreacted group” was added pure water in 50 μL each. After incubated at 37° C. for 60 minutes, the reaction stop solution was added in 450 μL each to stop the reaction. […]
Metabolite-dGSH binding concentration was measured by the following conditions, using a fluorescence detection UPLC system. […]
Fluorescence intensity was corrected with the composition of organic solvent at the time of elution because fluorescence intensity changes depending on the composition of organic solvent.

The target of series [5] is T1, human 5-HT7 receptor. The experiment in a line: Test 1: binding activity for human 5-HT7 receptor ([3H]SB-269970, CHO cell membrane fraction). The note with it: [3H]SB-269970, room temperature 60 minutes. Here is the method: (§1) Ki value was evaluated from dissociation constant which was calculated from saturated binding tests, and a substrate concentration, and it was used as an index for binding affinity.

The target of series [6] is human D2 receptor (Homo sapiens (Human), UniProt P14416). Description: Test 1: binding activity for human D2 receptor ([3H]Spiperone, CHO cell membrane fraction). The following applies: for Ki: [3H]Spiperone, room temperature 60 minutes; for D2 Ki/5-HT2A Ki / D2 Ki/5-HT7 Ki: selectivity ratio. Here is the method:
as §1

The nature of series [7]: Test 3-2: metabolic stability test in human hepatic microsome. The series is classed as in vitro ADME. The note with it: microsome 0.5 or 1.0 mg/mL, test compound 0.1 μmol/L, 30 or 60 minutes. Here is the method:
Test 3-2: Metabolic Stability Test in Human Hepatic Microsome
For more accurate evaluation of the metabolic stability in human hepatic microsome, the metabolic stability of the present compound in human hepatic microsome was evaluated at an appropriate concentration of human hepatic microsome as mentioned below. Human hepatic microsome was obtained from Xenontech. Human hepatic microsome, NADPH, and each test compound were mixed in 25 mmol/L phosphate buffer solution (pH 7.4) to reach the following concentrations as shown below, and the mixture was incubated at 37° C. for 60 minutes. • Human hepatic microsome: 0.5 or 1.0 mg/mL • NAPDH: 3.2 mmol/L • Test compound: 0.1 μmol/L
The residual ratio of a test compound in each sample after 30 or 60 minutes was measured by LC-MS, and the metabolic stability in human hepatic microsome was calculated from the following formula. Metabolic stability in human hepatic microsome (mL/min/mg protein)=−LN (residual ratio)/reaction time/concentration of human hepatic microsome

Series [8] can be described thus: Test 4: predictive test of human half life. The note with it: calculated from rat distribution volume, serum unbound fraction and Test 3-2 stability. How it is done: Test 4: Predictive Test of Human Half Life
The present compound was intravenously administered to a rat as an aqueous solution of 0.01 mol/L hydrochloric acid. Blood was collected on 5 minutes, 15 minutes, 30 minutes, 1 hour, 2 hours, 4 hours, 6 hours, and 24 hours after the administration. Plasma was obtained from the collected blood, the drug concentration in plasma was measured by LC-MS, and the distribution volume of rat was calculated from the transition of the concentration.
The unbound fraction rate of the present compound in human or rat serum was measured by equilibrium dialysis method.
The half-life in human was calculated according to the following formula using the results of the distribution volume of rat, the unbound fraction rate in human or rat serum, and the metabolic stability in human hepatic microsome obtained in Test 3-2.

The target of series [9] is T2, human 5-HT2A receptor (Homo sapiens (Human), UniProt P28223). Description: Test 1: binding activity for human 5-HT2A receptor ([3H]Ketanserin, CHO cell membrane fraction). The note with it: room temperature 60 minutes. Here is the method: as §1
T2 sequence (P28223 whole entry): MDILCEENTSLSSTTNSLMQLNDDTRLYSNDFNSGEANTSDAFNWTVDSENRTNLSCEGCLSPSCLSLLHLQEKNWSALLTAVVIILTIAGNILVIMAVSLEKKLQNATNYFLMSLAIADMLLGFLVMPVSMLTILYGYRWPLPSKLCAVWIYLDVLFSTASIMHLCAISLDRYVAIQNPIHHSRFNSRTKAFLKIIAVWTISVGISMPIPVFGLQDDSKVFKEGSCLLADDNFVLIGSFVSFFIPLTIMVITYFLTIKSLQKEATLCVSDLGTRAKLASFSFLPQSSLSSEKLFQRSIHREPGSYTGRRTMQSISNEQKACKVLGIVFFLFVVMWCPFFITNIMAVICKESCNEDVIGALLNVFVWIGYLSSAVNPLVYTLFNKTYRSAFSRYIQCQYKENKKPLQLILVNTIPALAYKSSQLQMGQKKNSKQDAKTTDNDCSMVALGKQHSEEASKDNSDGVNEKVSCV
The target of series [10] is T2, human 5-HT2A receptor. The experiment in a line: Test 2: antagonist activity for human 5-HT2A receptor (aequorin luminescence, CHO-K1 cells). The following applies: Gα16. It counts as cell-based. Here is the method:
Test 2: Evaluation of Antagonist Activity for Human 5-HT2A Receptor and Human 5-HT7 Receptor
Aequorin, Gα 16 protein, and each receptor were transiently expressed in CHO-K1 cells (Chinese hamster ovary). The cells were cultivated in a CO2 incubator at 37° C. overnight, seeded into a 384-well plate, and stood at room temperature for 2 hours. Each compound dissolved in DMSO was added thereto, and changes in luminescence were measured by FDSS/μCELL drug discovery screening support system (Hamamatsu Photonics K.K.). As for antagonist activity, inhibitory activity of each compound was calculated by setting the luminescence level of wells to which 10 μmol/L endogenous ligand was added as 100%.

Series [11] in a line: Test 9: intracerebral transferability in rats. The series is classed as in vivo. The following applies: brain and plasma (unbound); SD or WKY rat, subcutaneous or oral, 0.5, 1 or 2 hours; unbound brain/plasma ratio.
Method: In this test, intracerebral transferability of the present compound was evaluated by the following method. The present compounds were subcutaneously administered as a solution in saline, or orally administered as a suspension in methyl cellulose to a 7-week-old SD or WKY rat. Plasma and brain were collected on 0.5 hour, 1 hour, or 2 hours after the administration in order to measure the drug concentrations in plasma and brain by LC-MS.
Binding rates of the present compound to plasma and brain protein were measured by equilibrium dialysis method.
Kp,uu,brain (unbound drug concentration ratio between brain/plasma) can be calculated by applying the compound concentrations in plasma and brain and the binding rates to plasma and brain protein obtained from the above test into the following formula. Kp,uu,brain=(Compound concentration in brain×(100−Binding rate to brain protein (%))/100)/(Compound concentration in plasma×(100−Binding rate to plasma protein (%))/100)

Some results are limits rather than exact numbers.

T1 sequence (P34969 whole entry): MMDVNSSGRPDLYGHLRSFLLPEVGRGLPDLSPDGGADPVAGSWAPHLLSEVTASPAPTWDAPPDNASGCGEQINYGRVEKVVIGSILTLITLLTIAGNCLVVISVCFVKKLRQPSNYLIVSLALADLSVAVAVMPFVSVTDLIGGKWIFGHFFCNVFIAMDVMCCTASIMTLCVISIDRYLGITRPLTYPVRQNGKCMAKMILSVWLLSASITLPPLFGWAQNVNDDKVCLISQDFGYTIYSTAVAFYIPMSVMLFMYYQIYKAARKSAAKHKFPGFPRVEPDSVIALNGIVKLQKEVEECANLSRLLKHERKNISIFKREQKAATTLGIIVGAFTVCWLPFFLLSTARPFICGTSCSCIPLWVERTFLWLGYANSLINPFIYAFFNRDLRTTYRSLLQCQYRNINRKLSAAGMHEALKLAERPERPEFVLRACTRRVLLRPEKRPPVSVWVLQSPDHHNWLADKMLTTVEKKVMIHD
Chain of human D2 receptor (P14416 whole entry): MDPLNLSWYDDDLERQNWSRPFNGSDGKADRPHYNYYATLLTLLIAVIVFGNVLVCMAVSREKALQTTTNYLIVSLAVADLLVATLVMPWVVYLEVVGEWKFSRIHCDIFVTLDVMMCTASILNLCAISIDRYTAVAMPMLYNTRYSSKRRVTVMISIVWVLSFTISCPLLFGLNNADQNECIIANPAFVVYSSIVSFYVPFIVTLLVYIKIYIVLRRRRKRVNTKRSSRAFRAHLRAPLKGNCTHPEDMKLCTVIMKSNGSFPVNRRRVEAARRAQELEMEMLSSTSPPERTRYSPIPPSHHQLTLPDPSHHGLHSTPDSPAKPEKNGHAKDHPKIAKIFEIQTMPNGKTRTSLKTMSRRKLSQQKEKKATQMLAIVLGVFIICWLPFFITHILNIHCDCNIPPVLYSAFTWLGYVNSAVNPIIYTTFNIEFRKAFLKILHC

On to `CCN(CCN1CCC(c2noc3cc(F)c(C)cc23)CC1)C(=O)[C@H](C)O` [Example 13], for which the IC50 was determined as 81 nM in [1] and 2900 nM in series [3]. The “Metabolic stability in human hepatic microsome” value (from here on “Metabolic stability”) in series [2] was 0.054 mL/min/mg protein. In [4], the Metabolite-dGSH binding concentration is 0.214 µM.
On to `CCN(CCN1CCC(c2noc3cc(F)ccc23)CC1)S(=O)(=O)CCO` [Example 51, N-Ethyl-N-{2-[4-(6-fluoro-1,2-benzoisoxazol-3-yl)piperidin-1-yl]ethyl}-2-hydroxyethane-1-sulfonamide], for which the values for the Ki in [5] and in series [6] were 1.9 nM and 309 nM, respectively. For the same compound, the IC50 in series [1] came out at 62 nM; in series [3], 6900 nM. In addition, the “Metabolic stability” value is recorded as <0.05 mL/min/mg protein in series [2] and 0.016 mL/min/mg protein in series [7]. Besides, the Predicted half-life in series [8] is recorded as 6 h.
For `CCN(CCN1CCC(c2noc3cc(F)ccc23)CC1)C(=O)C(O)CNC(C)=O` (stereo not shown) [Example 71, 3-Acetamide-N-ethyl-N-{2-[4-(6-fluoro-1,2-benzoisoxazol-3-yl)piperidin-1-yl]ethyl}-2-hydroxypropanamide], in series [6], the “D2 Ki/5-HT2A Ki” value is 99 and the “D2 Ki/5-HT7 Ki” value was found to be 36. Further, the “Metabolic stability” value in [2] was <0.05 mL/min/mg protein. The “hERG inhibitory IC50 (nmol/L)/5-HT2A Ki (nmol/L)” value in series [3] was >4452. Further, in [4], the Metabolite-dGSH binding concentration turned out to be 0.132 µM.
As to `CCN(CCN1CCC(c2noc3cc(F)ccc23)CC1)S(=O)(=O)C(C)CO` (stereo not shown) [Example 52], the figures for the inhibition constant (Ki) in series [9], in series [5] and in [6] were 298 nM, 333 nM and > 10000 nM, respectively. Moreover, in [6], the “D2 Ki/5-HT2A Ki” value is >34. For the same compound, the “D2 Ki/5-HT7 Ki” value in [6] is recorded as >30. Besides, the concentration for half-maximal inhibition (IC50) came out at 946 nM in [10] and 177 nM in series [1].
Turning to `CCN(CCN1CCC(c2noc3cc(F)ccc23)CC1)C(=O)C(O)COC` (stereo not shown) [Example 18, N-Ethyl-N-{2-[4-(6-fluoro-1,2-benzoisoxazol-3-yl)piperidin-1-yl]ethyl}-2-hydroxy-3-methoxypropanamide], the Ki worked out at 2.5 nM in [9], 3.7 nM in series [5] and 198 nM in [6]. The half-maximal inhibitory concentration (IC50) in series [10] came to 58 nM; in [1] it was 72 nM; in [3], 4100 nM. In addition, the “Metabolic stability” value in [2] was <0.05 mL/min/mg protein. In addition, the “hERG inhibitory IC50 (nmol/L)/5-HT2A Ki (nmol/L)” value in [3] turned out to be 1637. For the same compound, the “hERG inhibitory IC50 (nmol/L)/5-HT7 Ki (nmol/L)” value in [3] is 1097. Besides, the Kp uu at 2 h in [11] is 0.56.
In series [10], `CCN(CCN1CCC(c2noc3cc(F)ccc23)CC1)C(=O)C1(O)CC1` [Example 24] gave an IC50 of 7 nM. In series [1], this compound showed a half-maximal inhibitory concentration (IC50) of 41 nM. In addition, the “Metabolic stability” value in [2] is listed as <0.05 mL/min/mg protein. In addition, in series [3], the IC50 turned out to be 5500 nM, the “hERG inhibitory IC50 (nmol/L)/5-HT2A Ki (nmol/L)” value turned out to be 5203 and the “hERG inhibitory IC50 (nmol/L)/5-HT7 Ki (nmol/L)” value worked out at 4988. Moreover, the Metabolite-dGSH binding concentration in series [4] stood at 7.645 µM.
